Test results published in patent publication US4736057A, “Cyclohexane derivatives” (Imperial Chemical Industries PLC, priority 1983, dated 1988).

Key:
thromboxane A2 (TXA2) = assay: rabbit aortal strip model, test (a), using the TXA2 mimetic U46619 as agonist; format: cell-based
Excerpt: (a) The rabbit aortal strip model devised by Piper and Vane (Nature. […]. 223, 29-35) using as agonist the TXA2 mimetic agent known as U46619 (R. L. Jones et alia in "Chemistry, Biochemistry and Pharmacological Activity of Prostanoids", eds. S. M. Roberts and F. Scheinman, at p.211, Pergamon Press, 1979);

[1] = test system: hypertensive effect of TXA2 mimetic agent U46619; assay: hypertensive effect of U46619 in anaesthetised rats, test (d); format: in vivo, rats (Alderley Park strain); conditions: Rattus norvegicus, iv; intravenously via the jugular vein, anaesthetised male rats, blood pressure at carotid artery, n=3; read-out: ED50 (dose necessary to produce 50% of the maximum hypertensive effect)
Experimental: (d) Male rats (Alderley Park strain) are anaesthetised with sodium pentobarbital and blood pressure is monitored at the carotid artery. The TXA2 mimetic agent known as U46619 is administered intravenously via the jugular vein and an ED50 (dose necessary to produce 50% of the maximum hypertensive effect) is established (n=3). The ED50 for U46619 is approximately 5 μg/kg. A test compound is then administered either intravenously via the jugular vein or orally via a cannula directly into the stomach and the animal challenged with an ED50 dose of U46619, five minutes after dosing with test compound and then successively every ten minutes until the hypertensive effect of U46619 is no longer blocked.

| Structure (SMILES) | pA2 (thromboxane A2 (TXA2)) | ED50 [1] [µg/kg] |
| --- | --- | --- |
| O=C(O)CCC/C=C\C[C@@H]1CC[C@H](OCc2ccccc2)C[C@@H]1c1ccccc1 (relative stereo) [Example 16, 5(Z)-7-([1,2,4-cis]-4-benzyloxy-2-phenylcyclohexyl)heptenoic acid] | 5.9 |  |
| CCCCC[C@H](O)/C=C/[C@@H]1[C@@H](C/C=C\CCCC(=O)O)[C@H]2CO[C@@H]1C2 [Example U46619] |  | ~5 |
